Results published in article PMC10283505, “CVM-1118 (foslinanib), a 2-phenyl-4-quinolone derivative, promotes apoptosis and inhibits vasculogenic mimicry via targeting TRAP1” (Pathology and Oncology Research, 2023).
Entries after “also recorded” stand apart in the source; their conditions may differ.

Key:
HCT-116 [1] = assay: In vivo vasculogenic mimicry (CD31−/RBC+ channels) in orthotopic HCT-116 xenograft; parameters: species or system BALB/c nude mice; settings: 100 mg/kg oral, excised colon tumor tissues, vs vehicle
Method: This animal study was contracted to CrownBio International R&D Center (Beijing, China) and was conducted under the approval of the Animal Ethics Committee at CrownBio in compliance with institutional and national guidelines. Seven-to eight-week-old female BALB/c nude mice were obtained from HFK Bio-Technology Co., Ltd. (Beijing, China). HCT-116 cells (2 × 10^6) were suspended in 20 μL PBS and then injected into the cecal wall. Treatment began on day 14 after cell inoculation when tumor reached ∼100 mm^3 measured in a satellite group of three mice. Treatment groups include vehicle control [PEG400:pH 10 carbonate buffer (40:60)], CVM-1118 at 20, 50, and 100 mg/kg given orally daily for 28 days, and CVM-1118 at 20 mg/kg given as intravenous injection once every 2 days for 7 times. Tumor volumes were measured at the end of in-life study on day 43. […] Briefly, rabbit anti-human CD31 antibody (Abcam) was used as the primary Ab for the staining and the number of channels with CD31+/red blood cell (RBC)+, or CD31−/RBC+ were counted based on five light fields (×200) on the whole section of each sample in each group under microscope. […] Statistical analysis for VM formation was evaluated using Mann-Whitney test. All data were analyzed using GraphPad Prism 9.5.

HCT-116 [2] = assay: Orthotopic HCT-116 mouse xenograft study, tumor volume; type: in vivo, BALB/c nude mice; settings: for tumor volume: day 43, vehicle 1,139 ± 580
Method: This animal study was contracted to CrownBio International R&D Center (Beijing, China) and was conducted under the approval of the Animal Ethics Committee at CrownBio in compliance with institutional and national guidelines. Seven-to eight-week-old female BALB/c nude mice were obtained from HFK Bio-Technology Co., Ltd. (Beijing, China). HCT-116 cells (2 × 10^6) were suspended in 20 μL PBS and then injected into the cecal wall. Treatment began on day 14 after cell inoculation when tumor reached ∼100 mm^3 measured in a satellite group of three mice. Treatment groups include vehicle control [PEG400:pH 10 carbonate buffer (40:60)], CVM-1118 at 20, 50, and 100 mg/kg given orally daily for 28 days, and CVM-1118 at 20 mg/kg given as intravenous injection once every 2 days for 7 times. Tumor volumes were measured at the end of in-life study on day 43. At the end of in vivo study, tumor tissues from selected groups were excised, collected, and subjected to standard immunohistochemical procedures to visualize the effect of CVM-1118 on VM network formation. Briefly, rabbit anti-human CD31 antibody (Abcam) was used as the primary Ab for the staining and the number of channels with CD31+/red blood cell (RBC)+, or CD31−/RBC+ were counted based on five light fields (×200) on the whole section of each sample in each group under microscope. Analysis of difference in tumor volume for drug-treated group against vehicle control group was conducted using one-way ANOVA followed by least significant difference (LSD) test (equal variance tested and confirmed by Brown-Forsythe test). Statistical analysis for VM formation was evaluated using Mann-Whitney test. All data were analyzed using GraphPad Prism 9.5.

M14 = assay: NCI 60 cytotoxicity screening; type: cell-based; settings: Homo sapiens; M14, Melanoma
MCF7 = assay: NCI 60 cytotoxicity screening; type: cell-based; settings: Homo sapiens; MCF7, Breast
CAKI-1 = assay: NCI 60 cytotoxicity screening; type: cell-based; settings: Homo sapiens; CAKI-1, Renal
NCI-H23 = assay: NCI 60 cytotoxicity screening; type: cell-based; settings: Homo sapiens; NCI-H23, NSCLC
RXF 393 = assay: NCI 60 cytotoxicity screening; type: cell-based; settings: Homo sapiens; RXF 393, Renal
MDA-MB-231 = assay: Succinate level (Abcam kit, hypoxia); type: cell-based, human; settings: MDA-MB-231, 100 nM, 72 h, vs vehicle control
Method: (§1) Succinate levels in the cells were assessed using the Abcam assay kit (ab204718). Cells were grown under hypoxic conditions (1% O2) at 37°C using a ProOx P110 Oxygen Controller (BioSpherix) and hypoxia chamber to establish a consistent and steady expression of HIF-1α in these cells for the experiments. At 80% confluence, cells were rinsed with phosphate buffered saline (PBS; 137 mM NaCl/2.7 mM KCl/10 mM Na2HPO4/1.8 mM KH2PO4, pH 7.4), then harvested by scrapping into a modified radio-immunoprecipitation assay (RIPA) buffer (100 mM Tris-HCl, 150 mM NaCl, 1% deoxycholate, 1% Triton X-100, 0.1% SDS, pH 7.4) plus protease inhibitor cocktail (Complete Mini; Roche) using 100 μL buffer per 1 × 10^6 cells. After sonication using a Fisher sonic dismembrator with microprobe (Fisher Scientific; five pulses at 2 s intervals) and centrifugation at 13,000 rpm for 30 min, the protein lysates (supernatants) were recovered, and protein concentrations determined using a bicinchoninic acid (BCA) assay (Bio-Rad). The samples were then deproteinated using Abcam 10 kDa Spin Columns (ab93349; which reduced the protein concentration by about 90%) and the samples were standardized at <10 μg of protein per sample per 50 μL of assay volume (as directed by the Abcam technical response team for working with these samples). The concentration of succinate (nmol/μL or μmol/mL or […]) for each sample was calculated after subtracting a background control (which was the sample run with assay buffer in place of the succinate converter component to account for and subtract any contaminating signal generated by NADH), as follows: Succinate = (A/B) × D; where: A = Amount of succinate (succinic acid) from the Standard Curve; B = Sample volume added into the reaction well (μL); D = Sample dilution factor. Two separate experiments were performed for each cell line.

SKOV3 = assay: Succinate level (Abcam kit, hypoxia); type: cell-based, human; settings: SKOV3, 100 nM, 72 h, vs vehicle control
Method: as §1

COLO205 = assay: Succinate level (Abcam kit, hypoxia); type: cell-based, human; settings: COLO205, 100 nM, 72 h, vs vehicle control
Method: as §1

SK-MEL28 = assay: Succinate level (Abcam kit, hypoxia); type: cell-based, human; settings: SK-MEL28, 100 nM, 72 h, vs vehicle control
Method: as §1

[3] = target: T1, human Hsp90 recombinant protein (HSP90AB1) (Homo sapiens, UniProt P08238); assay: Surface plasmon resonance (Biacore); type: binding; settings: recombinant human Hsp90 beta protein
T1 construct: purchased Abcam ab131923
Method: To confirm the molecular binding of the targeted protein, Surface Plasmon Resonance (SPR) was performed with a Biacore 3000. TRAP1 recombinant protein (Abcam, ab123775) or human Hsp90 recombinant protein (HSP90AB1, Abcam, ab131923) were immobilized on a CM5 sensor chip surface using the amine coupling method according to the manufacturer’s instruction (Biacore, GE Healthcare). CVM-1125 was dissolved in sodium carbonate buffer (pH 9) and then diluted in HBS-EDTA-P20 buffer to desired concentrations (five serial dilutions from 1 × 10^−5 to 1 × 10^−8 M) and injected at flow 30 μL/min with KINJET 60/180 %pos, analyte position, volume, and dissociation time. Specific binding was calculated using BiaEval 3 software.

HL-60(TB) = assay: NCI 60 cytotoxicity screening; type: cell-based; settings: Homo sapiens, Leukemia
Nucleolin = Nucleolin (Homo sapiens, UniProt P19338); assay: Surface plasmon resonance (Biacore); type: binding; settings: SPR
IGROV1 = assay: NCI 60 cytotoxicity screening; type: cell-based; settings: Homo sapiens, IGROV-1; IGROV1, Ovarian

Nucleolin, sequence (P19338 whole entry): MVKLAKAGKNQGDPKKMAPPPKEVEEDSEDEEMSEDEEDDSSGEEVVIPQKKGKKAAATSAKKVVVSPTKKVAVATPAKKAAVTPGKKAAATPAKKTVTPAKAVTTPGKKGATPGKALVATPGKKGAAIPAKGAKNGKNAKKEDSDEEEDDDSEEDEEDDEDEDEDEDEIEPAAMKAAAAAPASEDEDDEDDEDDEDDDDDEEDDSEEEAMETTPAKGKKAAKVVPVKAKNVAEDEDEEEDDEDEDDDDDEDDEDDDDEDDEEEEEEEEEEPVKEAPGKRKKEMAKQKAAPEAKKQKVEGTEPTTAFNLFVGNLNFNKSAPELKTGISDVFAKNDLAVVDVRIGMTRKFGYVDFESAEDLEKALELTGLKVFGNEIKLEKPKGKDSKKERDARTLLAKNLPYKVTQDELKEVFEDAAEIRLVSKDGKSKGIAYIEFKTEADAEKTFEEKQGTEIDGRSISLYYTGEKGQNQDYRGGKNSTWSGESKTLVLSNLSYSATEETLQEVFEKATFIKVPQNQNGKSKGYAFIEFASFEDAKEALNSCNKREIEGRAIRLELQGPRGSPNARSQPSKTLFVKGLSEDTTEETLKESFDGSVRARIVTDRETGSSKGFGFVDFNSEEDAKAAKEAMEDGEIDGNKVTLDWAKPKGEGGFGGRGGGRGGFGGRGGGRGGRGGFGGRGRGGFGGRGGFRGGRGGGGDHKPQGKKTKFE
T1 sequence (P08238 whole entry): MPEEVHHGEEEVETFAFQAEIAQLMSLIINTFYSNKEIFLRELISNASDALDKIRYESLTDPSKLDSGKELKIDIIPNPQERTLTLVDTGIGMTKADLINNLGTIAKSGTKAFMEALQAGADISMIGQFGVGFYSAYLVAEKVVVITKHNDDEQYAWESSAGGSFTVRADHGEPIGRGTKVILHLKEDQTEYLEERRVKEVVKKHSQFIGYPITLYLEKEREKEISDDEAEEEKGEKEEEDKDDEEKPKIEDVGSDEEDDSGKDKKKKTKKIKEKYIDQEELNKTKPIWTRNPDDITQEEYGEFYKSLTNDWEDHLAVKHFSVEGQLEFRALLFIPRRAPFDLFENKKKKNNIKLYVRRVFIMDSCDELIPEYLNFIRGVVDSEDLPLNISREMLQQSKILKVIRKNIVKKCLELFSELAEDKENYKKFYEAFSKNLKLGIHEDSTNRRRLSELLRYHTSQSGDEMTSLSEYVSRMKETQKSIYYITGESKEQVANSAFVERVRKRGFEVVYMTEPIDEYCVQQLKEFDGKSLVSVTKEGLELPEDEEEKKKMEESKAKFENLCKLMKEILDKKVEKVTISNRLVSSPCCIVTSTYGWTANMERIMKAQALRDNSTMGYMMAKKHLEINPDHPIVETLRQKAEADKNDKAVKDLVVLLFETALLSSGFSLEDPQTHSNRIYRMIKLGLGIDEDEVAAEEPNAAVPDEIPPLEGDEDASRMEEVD

For `COc1ccc2[nH]c(-c3cccc(F)c3)cc(=O)c2c1OP(=O)(O)O` [CVM-1118], the “reduction of VM network formation (VM channels)” value (HCT-116 [1]) was 85%, the tumor volume (HCT-116 [2]; 20 mg/kg i.v. once every 2 days for 7 times) was 670 ± 447 mm^3 and the “animals found dead prior to the termination of the study” value (HCT-116 [2]; 20 mg/kg i.v. treatment group) was “two mice”. The tumor volume (HCT-116 [2]; 20 mg/kg orally daily for 28 days) was 1,591 ± 747 mm^3, the “animals found dead prior to the termination of the study” value (HCT-116 [2]; 50 mg/kg oral treatment group) was “One mouse” and the tumor volume (HCT-116 [2]; 50 mg/kg orally daily for 28 days) was 722 ± 595 mm^3. The tumor volume (HCT-116 [2]; 100 mg/kg orally daily for 28 days) was 475 ± 415 mm^3.

For `COc1ccc2[nH]c(-c3cccc(F)c3)cc(=O)c2c1O` [CVM-1125], the GI50 (M14) was 18.9 nM, the GI50 (MCF7) was 29.9 nM and the GI50 (CAKI-1) was 46.7 nM. The GI50 (NCI-H23) was 34.5 nM, the GI50 (RXF 393) was 17.5 nM and the “reduction of succinate levels” value (MDA-MB-231) was 20%. For the same compound, the “reduction of succinate levels” value (SKOV3) was 35%, the “reduction of succinate levels” value (COLO205) was 18% and the “reduction of succinate levels” value (SK-MEL28) was 23%. The “interaction with Hsp90 by SPR” value [3] was “no specific interaction; also recorded: not interacting”, the GI50 (HL-60(TB)) was 22.2 nM and the “Dissociation (kd)” value (Nucleolin) was 0.0122 s⁻¹. It also gave a kon (Nucleolin; read-out: Association (ka)) of 13500 M⁻¹ s⁻¹, a Kd (Nucleolin; read-out: KD (kd/ka)) of 906 nM and a GI50 (IGROV1) of 27 nM.
